Results on 22 molecules are retold here after article PMC3989234, “Introduction of Aromatic Ring-Containing Substituents in Cyclic Nucleotides Is Associated with Inhibition of Toxin Uptake by the Hepatocyte Transporters OATP 1B1 and 1B3” (PLoS ONE, 2014).

Where two headings read alike, the source gives them in different places. Bounds are passed on as bounds.

Data set [1] deals with T1, OATP1B1 (Homo sapiens, UniProt Q9Y6L6).
T1 sequence (Q9Y6L6 1-691): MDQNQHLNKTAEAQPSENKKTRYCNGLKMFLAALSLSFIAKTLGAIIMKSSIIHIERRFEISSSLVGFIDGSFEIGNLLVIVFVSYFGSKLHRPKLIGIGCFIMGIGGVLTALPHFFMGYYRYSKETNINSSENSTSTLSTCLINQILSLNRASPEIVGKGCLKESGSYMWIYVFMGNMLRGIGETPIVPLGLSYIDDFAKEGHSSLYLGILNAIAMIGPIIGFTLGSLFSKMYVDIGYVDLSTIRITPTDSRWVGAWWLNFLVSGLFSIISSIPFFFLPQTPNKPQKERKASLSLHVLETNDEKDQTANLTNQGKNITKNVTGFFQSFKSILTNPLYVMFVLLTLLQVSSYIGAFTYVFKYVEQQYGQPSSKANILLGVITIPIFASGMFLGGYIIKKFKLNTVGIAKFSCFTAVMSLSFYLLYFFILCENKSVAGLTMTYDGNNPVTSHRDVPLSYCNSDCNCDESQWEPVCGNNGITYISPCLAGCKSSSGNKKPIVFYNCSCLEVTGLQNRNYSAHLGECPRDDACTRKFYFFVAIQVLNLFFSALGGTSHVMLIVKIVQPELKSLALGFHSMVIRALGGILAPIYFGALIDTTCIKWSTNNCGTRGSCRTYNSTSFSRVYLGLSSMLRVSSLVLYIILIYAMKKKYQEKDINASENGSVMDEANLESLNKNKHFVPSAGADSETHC

In data set [2] the target is T2, OATP1B3 (Homo sapiens, UniProt Q9NPD5).
T2 sequence (Q9NPD5 whole entry): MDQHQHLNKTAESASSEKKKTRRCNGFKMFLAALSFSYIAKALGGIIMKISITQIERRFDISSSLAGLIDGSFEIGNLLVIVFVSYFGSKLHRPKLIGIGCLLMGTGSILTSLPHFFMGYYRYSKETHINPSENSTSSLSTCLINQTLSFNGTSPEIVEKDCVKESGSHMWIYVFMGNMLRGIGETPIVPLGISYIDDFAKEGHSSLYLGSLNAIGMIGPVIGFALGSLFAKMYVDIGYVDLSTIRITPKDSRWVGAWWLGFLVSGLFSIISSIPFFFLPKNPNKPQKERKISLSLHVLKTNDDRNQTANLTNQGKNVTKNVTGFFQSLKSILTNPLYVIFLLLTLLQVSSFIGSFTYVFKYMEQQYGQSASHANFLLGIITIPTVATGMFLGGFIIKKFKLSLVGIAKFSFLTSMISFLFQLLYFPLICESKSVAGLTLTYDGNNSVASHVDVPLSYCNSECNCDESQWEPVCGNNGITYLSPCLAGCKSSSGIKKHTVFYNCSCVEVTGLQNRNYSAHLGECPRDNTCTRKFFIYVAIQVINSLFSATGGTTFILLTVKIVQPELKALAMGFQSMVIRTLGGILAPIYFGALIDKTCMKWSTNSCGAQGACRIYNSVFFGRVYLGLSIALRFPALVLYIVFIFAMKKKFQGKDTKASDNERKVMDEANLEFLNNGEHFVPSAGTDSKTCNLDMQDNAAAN
Data set [3] has as its target T2, OATP1B3. As to the kind of experiment: cell-based.
Data set [4] addresses T1, OATP1B1. As to the kind of experiment: cell-based.
The test system of data set [5] is primary rat hepatocytes.
Data set [6] has as its system primary rat hepatocytes. The source holds these as a separate data set.
Data set [7] deals with primary rat hepatocytes. The source holds these as a separate data set.

What is called IC50 is the concentration that inhibits the measured activity by half. Broadly, the Ki is a dissociation constant, usually derived from enzyme kinetics or from competition with a known ligand. High values mean lower affinity, low ones higher affinity. At OATP1B1 [1], `O=P1(O)OC[C@H]2O[C@@H](n3c(Sc4ccc(Cl)cc4)nc4c(Nc5ccccc5)ncnc43)C[C@@H]2O1` [8-pCPT-6-Phe-dcAMP, 8-(4-Chlorophenylthio)-N^6-phenyladenosine-2′-deoxyadenosine 3′, 5′-cyclic monophosphate] returned a 50% inhibitory concentration (IC50) of 8.2 µM and an inhibition constant Ki of 2.73 µM. In addition, at OATP1B3 [2], the IC50 amounted to 8 µM and the affinity corresponds to a Ki of 2.14 µM.

As for `Nc1ncnc2c1ncn2C1OC2COP(=O)(O)OC2C1O` (stereo not shown) [cAMP], the concentration for half-maximal inhibition (IC50) against OATP1B3 [3] and against OATP1B1 [4] was above 300 µM each time. In addition, the “Effect on Nod-induced apoptosis / Nod transport, OATP1B1-transfected HEK293T cells” value on OATP1B1 [1] is listed as “did not affect”. Also, the “Effect on Nod-induced apoptosis / Nod transport, OATP1B3-transfected HEK293T cells” value on OATP1B3 [2] is “did not affect”.

For the molecule `CC(C)Cn1c(=O)n(C)c(=O)c2[nH]cnc21` [IBMX], the “Effect on Nod-induced apoptosis, OATP1B1-transfected cells” value on OATP1B1 [1] (250 µM) was “did not affect”. In addition, on OATP1B3 [2] (250 µM), the “Effect on Nod-induced apoptosis, OATP1B3-transfected cells” value was “did not affect”.

Consider `Nc1nc2c(ncn2[C@@H]2O[C@@H]3COP(=O)(O)O[C@H]3[C@H]2O)c(=O)[nH]1` [cGMP], for which, on OATP1B1 [1], the “Effect on Nod-induced apoptosis / Nod transport, OATP1B1-transfected HEK293T cells” value was “did not affect” and the IC50 was above 300 µM. In addition, at OATP1B3 [2], the “Effect on Nod-induced apoptosis / Nod transport, OATP1B3-transfected HEK293T cells” value was “did not affect” and the IC50 is above 300 µM.

For the molecule `O=C1OC(c2ccc(O)c(S(=O)(=O)O)c2)(c2ccc(O)c(S(=O)(=O)O)c2)c2c(Br)c(Br)c(Br)c(Br)c21` [BSP, sulfobromophthalein], in the data set on primary rat hepatocytes [5], the “Effect on [3H]-Nod accumulation in hepatocytes” value is “complete inhibition”. Besides, in the data set with primary rat hepatocytes [6] (50 µM), the “Effect on [14C]-glycocholic acid accumulation in hepatocytes” value is “complete inhibition”.

Consider `CO[C@H]1/C=C/O[C@@]2(C)Oc3c(C)c(O)c4c(O)c(cc(O)c4c3C2=O)NC(=O)/C(C)=C\C=C\[C@H](C)[C@H](O)[C@@H](C)[C@@H](O)[C@@H](C)[C@H](OC(C)=O)[C@@H]1C` [rifamycin SV, Rifamycin SV], for which, at OATP1B1 [1], the “Effect on Nod-induced apoptosis / Nod transport, OATP1B1-transfected HEK293T cells” value was “abolished”. Further, the “Effect on Nod-induced apoptosis / Nod transport, OATP1B3-transfected HEK293T cells” value on OATP1B3 [2] is “abolished”.

With `CCCC(=O)Nc1ncnc2c1ncn2[C@@H]1O[C@@H]2COP(=O)(O)O[C@H]2[C@H]1O` [Analog 6-MB-cAMP, N^6-Monobutyryladenosine-3′, 5′-cyclic monophosphate], the “Effect on Nod-induced hepatocyte apoptosis (Fig. 1A)” value in the data set with primary rat hepatocytes [7] is on record as “no change in apoptosis induction”. In addition, the “[14C]-GCA accumulation rel. to control” value in the data set on primary rat hepatocytes [6] (50 µM) is recorded as “about 1.7”. Further, the “[14C]-GCA accumulation rel. to control” value in the data set with primary rat hepatocytes [6] (400 µM) turned out to be 1.1. In addition, at OATP1B1 [1], the “Effect on Nod-induced apoptosis / Nod transport, OATP1B1-transfected HEK293T cells” value is reported as “no inhibitory effect” and the IC50 is above 300 µM. For the same molecule, on OATP1B3 [2], the “Effect on Nod-induced apoptosis / Nod transport, OATP1B3-transfected HEK293T cells” value is “no inhibitory effect” and the IC50 is above 300 µM.

The term Km denotes the substrate concentration at which the rate is half of its maximum. As for `C/C=C1/C(=O)N[C@@H](C(=O)O)[C@H](C)C(=O)N[C@@H](CCCNC(=N)N)C(=O)N[C@@H](/C=C/C(C)=C/[C@H](C)[C@H](Cc2ccccc2)OC)[C@H](C)C(=O)N[C@@H](C(=O)O)CCC(=O)N1C` [Nod, nodularin], the Km was determined as 0.05 µM at OATP1B1 [1] (read-out: Km for Nod, OATP1B1) and 0.22 µM on OATP1B3 [2] (read-out: Km for Nod, OATP1B3).

Consider `Nc1ncnc2c1nc(Sc1ccc(Cl)cc1)n2C1CC2OP(=O)(O)OCC2O1` (stereo not shown) [Analog 8-pCPT-dcAMP, 8-(4-Chlorophenylthio)adenosine-2′-deoxyadenosine-3′, 5′-cyclic monophosphate], for which the “Effect on Nod-induced hepatocyte apoptosis (Fig. 2A)” value in the data set on primary rat hepatocytes [7] is given as “blocked Nod-induced apoptosis”. Also, the “Effect on [14C]-glycocholic acid accumulation in hepatocytes” value with primary rat hepatocytes [6] was “inhibited uptake”. Also, the IC50 came to 223 µM at OATP1B1 [1] and 55.7 µM on OATP1B3 [2]. In addition, the Ki was determined as 74.7 µM at OATP1B1 [1] and 14.9 µM at OATP1B3 [2].

For the molecule `Nc1nc2c(nc(Sc3ccc(Cl)cc3)n2[C@@H]2O[C@@H]3COP(=O)(O)O[C@H]3[C@H]2O)c(=O)[nH]1` [Analog 8-pCPT-cGMP, 8-(4-Chlorophenylthio)guanosine-3′, 5′-cyclic monophosphate], at OATP1B1 [1], the IC50 came out at 259 µM and the Ki worked out at 86.3 µM. On OATP1B3 [2], this molecule displayed an IC50 of 88.8 µM and an inhibition constant Ki of 29.6 µM.

Take `CO[C@@H]1[C@H](O)[C@@H](CO)O[C@H]1n1c(Sc2ccc(Cl)cc2)nc2c(N)ncnc21` [8-pCPT-2′-O-Me-Ado, 8-(4-Chlorophenylthio)-2′-O-methyladenosine]: the IC50 was determined as 17.2 µM against OATP1B3 [3] and 31.3 µM at OATP1B1 [4]. Also, the inhibition constant Ki at OATP1B3 [3] was determined as 4.61 µM; at OATP1B1 [4], 10.4 µM.

Consider `COC1C2OP(O)(=S)OCC2OC1n1c(Sc2ccc(Cl)cc2)nc2c(N)ncnc21` (single isomer, unassigned) [Rp-8-pCPT-2′-O-Me-cAMPS, 8-(4-Chlorophenylthio)-2′-O-methyladenosine-3′, 5′-cyclic monophosphorothioate, Rp-isomer], for which the IC50 against OATP1B1 [1] and on OATP1B3 [2] was above 300 µM each time.

For `Nc1ncnc2c1nc(Br)n2[C@@H]1O[C@@H]2COP(=O)(O)O[C@H]2[C@H]1O` [Analog 8-Br-cAMP, 8-Bromoadenosine-3′, 5′-cyclic monophosphate], the concentration for half-maximal inhibition (IC50) against OATP1B1 [1] and on OATP1B3 [2] was above 300 µM each time.

As to `Nc1ncnc2c1nc(Sc1ccc(Cl)cc1)n2[C@@H]1O[C@H](CO)[C@@H](O)[C@H]1O` [Analog 8-pCPT-Ado, 8-(4-Chlorophenylthio)adenosine], at OATP1B3 [3], the concentration for half-maximal inhibition (IC50) was found to be 150 µM and the Ki worked out at 40.2 µM. Moreover, the IC50 against OATP1B1 [4] was above 300 µM.

With `Nc1ncnc2c1nc(Sc1ccc(Cl)cc1)n2[C@@H]1O[C@@H]2COP(=O)([O-])O[C@H]2[C@H]1O.[Na+]` [Analog 8-pCPT-cAMP, 8-(4-Chlorophenylthio)adenosine-3′, 5′-cyclic monophosphate], in the data set on primary rat hepatocytes [7], the “Effect on Nod-induced hepatocyte apoptosis (Fig. 1A)” value is given as “inhibited completely apoptotic morphology” and the “Effect on Nod-induced hepatocyte apoptosis (Fig. 2A)” value is “clear inhibition”. Moreover, in the data set on primary rat hepatocytes [6], the “[14C]-GCA accumulation compared to control” value stood at 60%. Moreover, on OATP1B1 [1], the “Effect on Nod-induced apoptosis / Nod transport, OATP1B1-transfected HEK293T cells” value is “inhibits”; inhibition was half-maximal at 130 µM (IC50); the Ki was 43.3 µM. Besides, at OATP1B3 [2], the “Effect on Nod-induced apoptosis / Nod transport, OATP1B3-transfected HEK293T cells” value is given as “inhibits”; the IC50 was 49.6 µM; affinity was put at a Ki of 13.3 µM.

As to `Nc1ncnc2c1nc(Br)n2C1OC2COP(O)(=S)OC2C1O` (single isomer, unassigned) [Rp-8-Br-cAMPS, 8-Bromoadenosine-3′, 5′-cyclic monophosphorothioate, Rp-isomer], the “Effect on Nod-induced hepatocyte apoptosis (Fig. 1F)” value with primary rat hepatocytes [7] (300 µM, 150 nM Nod) is recorded as “inhibited apoptotic morphology”. Further, the IC50 against OATP1B1 [1] and against OATP1B3 [2] was above 300 µM in each case.

In the case of `CO[C@H]1C2OP(=O)(O)OC[C@H]2O[C@H]1n1c(Br)nc2c(N)ncnc21` (stereo partly shown) [8-Br-2′-O-Me-cAMP, 8-Bromo-2′-O-methyladenosine-3′, 5′-cyclic monophosphate], the IC50 at OATP1B1 [1] was above 300 µM. Also, on OATP1B3 [2], the “Effect on Nod-induced apoptosis / Nod transport, OATP1B3-transfected HEK293T cells” value is recorded as “some inhibition” and the half-maximal inhibitory concentration (IC50) was above 300 µM.

For `CO[C@@H]1[C@@H]2OP(=O)(OCOC(C)=O)OC[C@H]2O[C@H]1n1c(Sc2ccc(Cl)cc2)nc2c(N)ncnc21` (stereo partly shown) [8-pCPT-2′-O-Me-cAMP-AM, 8-(4-Chlorophenylthio)-2′-O-methyladenosine-3′, 5′-cyclic monophosphate, acetoxymethyl ester], in the data set on primary rat hepatocytes [5], the “Effect on [3H]-Nod accumulation in hepatocytes” value was “did not affect”. Moreover, the “Effect on [14C]-glycocholic acid accumulation in hepatocytes” value with primary rat hepatocytes [6] (50 µM) is given as “no inhibitory effect”.

Regarding `CCCC(=O)Nc1ncnc2c1ncn2[C@@H]1O[C@@H]2COP(=O)(O)O[C@H]2[C@H]1OC(=O)CCC` [DB-cAMP, N^6, 2′-O-Dibutyryladenosine-3′, 5′-cyclic monophosphate], the values for the IC50 against OATP1B3 [3] and at OATP1B1 [4] were 119 µM and above 300 µM, respectively. For the same molecule, at OATP1B1 [1] (human), the “Effect on Nod-induced apoptosis / Nod transport, OATP1B1-transfected HEK293T cells” value is “but not to OATP1B1 activity”.

Consider `O=P1(O)OCC2OC(n3c(Sc4ccc(Cl)cc4)nc4c(Nc5ccccc5)ncnc43)C(O)C2O1` (stereo not shown) [8-pCPT-6-Phe-cAMP, 8-(4-Chlorophenylthio)-N^6-phenyladenosine-3′, 5′-cyclic monophosphate], for which the figures for the Ki on OATP1B1 [1] and at OATP1B3 [2] were 2.07 µM and 0.804 µM, respectively.

Consider `Nc1nc2c(nc(Br)n2[C@@H]2O[C@@H]3COP(=O)(O)O[C@H]3[C@H]2O)c(=O)[nH]1` [Analog 8-Br-cGMP, 8-Bromoguanosine-3′, 5′-cyclic monophosphate], for which, on OATP1B1 [1], the “Effect on Nod-induced apoptosis / Nod transport, OATP1B1-transfected HEK293T cells” value is “inactive” and the IC50 was above 300 µM. At OATP1B3 [2], the “Effect on Nod-induced apoptosis / Nod transport, OATP1B3-transfected HEK293T cells” value is “inactive” and the IC50 was above 300 µM.

As to `Nc1ncnc2c1ncn2[C@@H]1O[C@H](CO)[C@@H](O)[C@H]1O` [Adenosine, adenosine], the IC50 on OATP1B3 [3] and against OATP1B1 [4] was above 300 µM each time.
